In patent publication US20030186869A1, “Polymer compositions comprising antifibrotic agents, and methods of treatment, pharmaceutical compositions, and methods of preparation therefor” (priority 1990, published 2003):

What was measured:
[1] = tested on: Sprague-Dawley rats housed under hypoxic conditions (10% O2); test: Hypoxic rat model of pulmonary hypertension, CHOP-PEG; format: in vivo; details: 10 mg in 7-day minipump
[2] = tested on: Sprague-Dawley rats housed under hypoxic conditions (10% O2); test: as above; format: in vivo
Protocol: The anti-pulmonary hypertensive activity of the polymer compositions was tested in the hypoxic rat model (as described in detail above). […] PH is manifested histologically by vascular remodeling (collagen accumulation and fibroblastic hypertrophy), increased right ventricular work-load, thickening of the pulmonary artery, and hypertrophy of the right ventricular cardiac wall. […] Drug treatment can take place during the acute induction phase (days 0-7) or following the establishment of experimental PH (day 7 or later). Intravenous (i.v.), subcutaneous (s.c.), intra-tracheal instillation, and osmotic minipump delivery have been tested. Experiments are scored by obtaining the mean RVP measurement. Results are expressed as either RVP in mm Hg, or preferably as the reduction in the RVP by the formula: […] On day 7 the RVP was measured and compared to animals maintained in normoxic conditions (10.4 mm Hg) and to untreated animals kept in hypoxic conditions (19.3 mm Hg).

RFL-6 cells = test: IC50 experiment, cytotoxicity / growth inhibition of RFL-6 rat fibroblast cells; format: cell-based
Protocol: In this test two different synthesis batches of cis-hydroxyproline (CHOP) linked to PEG were tested, along with free CHOP. […] The differences between the two batches of CHOP-PEG are not significant.

## poly(PEG-Lys-cHyp amide) [CHOP-PEG]
[1]; day 10
  reduction of RVP: 56%
[1]; day 14
  reduction of RVP: 45%
[2]; 0.8 mg total dose per animal, acute PH
  reduction of RVP at minimum maximally effective dose: > 70%
[2]; 10 mg in 7-day minipump, day 7
  reduction of RVP: 74%
[2]; 7-day miniosmotic pump, both drug treated groups (1 or 4 mg, FIG. 18)
  reduction of RVP: 76%
[2]; 7-day minipump, 1.0 mg
  reduction of RVP: more than 50%
[2]; intratracheal instillation 90 mg on days 0 and 2
  reduction of RVP: 51%
[2]; intratracheal instillation 90 mg on days 0 and 2, reduced from 20
  RVP: 15 mm Hg
[2]; normoxic, intratracheal instillation, similar treatment
  effect on RVP in rats under normoxic conditions: no effect
[2]; single i.v. dose 0.8 mg on day 0, RVP on day 7
  reduction of RVP: ~50%
[2]; subcutaneous route, 7 day hypoxic rat model
  reduction of RVP: minimal reduction of RVP
[2]; total dose per animal
  minimum dose that reduces RVP maximally in acute PH: 0.8 mg
RFL-6 cells; PEG construct, mean ± SD (n), read-out: IC50, AA-Lys-PEG
  IC50: 5.6 ± 1.5 mM
RFL-6 cells; two synthesis batches (1 and 2), FIG. 15
  inhibition of rat fibroblast growth, polymeric constructs versus free amino acid: to a similar extent
